Here are results for 1 compound from patent US6693134B2, “Bicyclic aromatic chemokine receptor ligands” (Chemokine Therapeutics Corporation, priority 2001, dated 2004).

In test [1] the target is T1, CXCR-4 (Homo sapiens, UniProt P61073). In words: Inhibition of SDF-1 induced intracellular [Ca2+]i mobilization in THP-1 cells. Further details: endogenous in cells; host or cells: THP-1 cells. Format: cell-based. The following applies: Fura-2,AM loaded THP-1 cells; incubated 60 min prior to induction by 10 nM SDF-1. The protocol: A rapid, transient rise in the free cytosolic Ca^2+ concentration ([Ca^2+]i) is one of the events associated with the Chemokine mediated induction of the associated receptors and is assumed to be involved in many of the subsequent cellular reactions. Both Ca^2+ release from intracellular stores and Ca^2+ influx from the extracellular space contribute to the rise in [Ca^2+]i. […] Fura-2,AM loaded THP-1 cells were incubated with CTCM226 for 60 min prior to induction of [Ca^2+]i mobilization by 10 nM SDF-1. Results illustrate the effect of CTCM226 (1) on SDF-1 induced Ca^2+ mobilization.
T1 sequence (P61073 whole entry): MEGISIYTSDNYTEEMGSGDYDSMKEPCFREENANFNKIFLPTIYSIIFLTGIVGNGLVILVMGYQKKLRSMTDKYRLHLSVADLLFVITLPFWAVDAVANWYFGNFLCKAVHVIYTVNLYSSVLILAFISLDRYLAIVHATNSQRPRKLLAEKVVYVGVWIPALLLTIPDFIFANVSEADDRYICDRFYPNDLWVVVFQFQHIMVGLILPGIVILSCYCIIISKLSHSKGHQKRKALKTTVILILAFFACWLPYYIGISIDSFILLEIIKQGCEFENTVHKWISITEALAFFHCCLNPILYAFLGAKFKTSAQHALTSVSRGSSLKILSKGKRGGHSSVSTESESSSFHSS
In accordance with this aspect of the invention, the naphthoic acid derivative, such as compound 1 or corresponding salts may be used for the treatment of a wide range of inflammatory diseases such as gout, arthritis, osteoarthritis, rheumatoid arthritis, and ARDS.

The target of test [2] is T1, CXCR-4. In words: Inhibition of binding of I125 labeled SDF-1 to CXCR-4 receptor. The following applies: I125 labeled SDF-1 as competitor ligand. The protocol:
This example discloses the ability of compounds of the invention, such as naphthoic acid derivatives, such as CTCM226 (1), to inhibit binding of SDF-1 to CXCR-4 receptor. The binding studies were conducted using I^125 labeled SDF-1 as competitor ligand.

Broadly, the IC50 is the point on the concentration scale where inhibition reaches its midpoint. Read a high IC50 as a need for much substance.

`O=C(O)c1cc2ccccc2cc1O` [Compound 1, 3-Hydroxy-2-naphthoic acid]: the IC50 came to 0.6 µM in test [1] and 150 µM in test [2].
